US20240041975A1, “ANTICANCER PEPTIDE AND USE THEREOF FOR INHIBITING CANCER CELL VIABILITY” (NATIONAL TSING HUA UNIVERSITY, priority 2022, published 2024)
pIC50: −log10 of the molar value.

Experiments:
[1] = MTT assay cell cytotoxicity, normal cell HFW; assay type: cell-based; conditions: human, human diploid fibroblast (HFW) cells, 24 hr treatment
Protocol: (§1) Human non-small cell lung cancer line A549, PC9, and H1975 (Osimertinib sensitive; Gefitinib toleran; belonged to T790M mutations), oral squamous cell carcinoma cell line OECM-1 were cultured in RPMI medium supplemented with 10% fetal bovine serum (FBS) and antibiotic. Human oral squamous cell carcinoma cell line C9 and human diploid fibroblast (HFW) were cultured in DMEM medium supplemented with 10% fetal bovine serum (FBS) and antibiotic. Cells were cultured in a humidified incubator containing 5% CO2 at 37° C.
(§2) The cytotoxicity of cancer cells via administrating the peptides were measured by the MTT assay. All cancer cell lines were seeded in a 96-well plate at a density of 5×10^4 cells per well and incubated for 24 hr. After the medium was removed, using the anti-cancer peptides ranged from 50 μM to 0.78 μM for treatment, diluted in the growth medium, and administered 24 hr. The media was then removed, determined cell viability by incubated for 3 hours at 37 C with the addition of 100 μL Thiazolyl Blue Tetrazolium Bromide (MTT 0.5 mg/ml in PBS; M2128, Sigma-Aldrich) diluted by ratio 1:9 in the growth medium. Next, the medium with MTT solution was removed, added 100 μl Dimethyl Sulfoxide (DMSO, D4540, Sigma-Aldrich) for dissolving the formazan crystal. Cell survival rate was calculated by measuring the absorbance at 570 nm using a microplate reader (Sunrise TM, TECAN, Switzerland). Medium without peptide and mixed with H2O2 represented positive and negative control, respectively. The experiments were repeated at least three times. Cell Viability percentage was calculated as follows: […]

[2] = system: human lung cancer cell/cell line and oral squamous cell carcinoma cell/cell line; test: MTT assay, overall anticancer spectrum; assay type: cell-based; conditions: for efficiency to the human lung cancer cell line: human lung cancer cell lines, FIG. 1A-1C
Protocol: as §1, §2

[3] = system: Human oral squamous cell carcinoma cell line C9; test: MTT assay cytotoxicity, C9; assay type: cell-based; conditions: for activity against oral squamous cell carcinoma cell line C9 (in words): FIG. 1E; for pIC50: MTT, 24 hr treatment, read-out: anticancer activity oral squamous cell carcinoma cell line C9
Protocol: as §1, §2

[4] = system: Human non-small cell lung cancer line H1975; test: MTT assay cytotoxicity, H1975; assay type: cell-based; conditions: 24 hr treatment, read-out: anticancer activity Human non-small cell lung cancer line H1975
Protocol: as §1, §2

[5] = system: Human non-small cell lung cancer line PC9; test: MTT assay cytotoxicity, PC9; assay type: cell-based; conditions: 24 hr treatment, read-out: anticancer activity Human non-small cell lung cancer line PC9
Protocol: as §1, §2

[6] = system: Human non-small cell lung cancer line A549; assay type: cell-based; conditions: for pIC50: 24 h
Protocol: as §1, §2

[7] = system: oral squamous cell carcinoma cell line OECM-1; test: MTT assay cytotoxicity, OECM-1; assay type: cell-based; conditions: 24 hr treatment, read-out: anticancer activity oral squamous cell carcinoma cell line OECM-1
Protocol: as §1, §2

[8] = system: Human non-small cell lung cancer cell A549; test: Extracellular cytochrome c release (ELISA); assay type: cell-based; conditions: 4×IC50 (6.452 μM)
Protocol: FIG. 5 depict that release of mitochondria DAMPs Cytochrome c was detected by Elisa kit. Human non-small cell lung cancer cell A549 administrated with 6.452 μM (4×IC50) of K1R12-AGP-RW for different time period (30 min, 60 min, 90 min, 120 min, […]). Data are presented as means ±SEM, ***p<0.005, **p<0.01, versus the control group.
The ELISA kit for detection of cytochrome c was obtained from the R&D System (Minneapolis, MN, USA). Before the experiment, prepare a buffer solution or reagent from the kit. Seed cancer cells 1×10^5 in 96 well incubated 24 hours. After 24 hours, substitute with 4×IC50 K1R12-AGP-RW dilutions in medium, and incubate designated time points (30 min, 60 min, 90 min, 120 min). Following the supernatant was centrifuged at 16000 xg for 10 minutes. Add 50 μL supernatant and 75 μL of cytochrome c conjugate to each well. Then, add 50 μL of standard, control, or sample per well. Mix by tapping the plate frame for 1 minute. Cover with the adhesive strip provided. Incubate for 2 hours at room temperature. A plate layout is provided to record standards and samples assayed. Then use the wash buffer washed 5 times with 400 μL. The last wash removes any remaining Wash Buffer by decanting. […] Detection the cytochrome c at absorbance 450 nm using a microplate reader (Sunrise TM, TECAN, Switzerland).

A549 cell = test: Killing kinetics (MTT time course); assay type: cell-based, human; conditions: 4×IC50 (6.452 μM) vs 2×IC50 (3.226 μM), within 240 minutes
Protocol: To evaluate the cytotoxic activity and time course against the A549 cell, two different concentrations of K1R12-AGP-RW 2×IC50 (3.226 μM), 4×IC50 (6.452 μM) were used. Cells were seeded as described as MTT assay, after 24 hours culture, cell were incubated with 2×IC50 and 4×IC50 peptide solution for 60 minutes, 120 minutes, 180 minutes, 240 minutes. Further incubated in 10% MTT solution for an additional 4 hours. Remove MTT solution and Dimethyl Sulfoxide (DMSO, D4540, Sigma-Aldrich) was added to formazan crystal solubilization. Using a microplate reader (Sunrise TM, TECAN, Switzerland) detecting the absorbance at 570 nm. The experiments were repeated three times independently.

[9] = system: Human non-small cell lung cancer cell A549; test: ATP release (ENLITEN ATP assay kit, luciferin-luciferase); assay type: cell-based; conditions: 4×IC50 (6.452 μM)
Protocol: FIG. 4 depict that Detection ATP release into supernatant was detect after adminstrated with K1R12-AGP-RW. Human non-small cell lung cancer cell A549 administrated with 6.452 μM (4×IC50) of K1R12-AGP-RW for different time period (30 min, 60 min, 90 min, 120 min). Data are presented as means ±SEM, ***p<0.005, **p<0.01, versus the control group. Data of FIG. 4 were analyzed using the one-way ANOVA and multiple comparison test.
The ENLITEN ATP assay kit (Promega, Madison, WI, FF2000) was used for the detection of ATP release levels. Above all seeds, cancer cells in 96 well with 1×10^5 cell per well, incubated 24 hours. On day 2, replace the medium with the fresh medium containing 4×IC50 K1R12-AGP-RW incubated at different time points (30 min, 60 min, 90 min, 120 min). The supernatant was college and centrifuged 500 xg for 10 minutes to remove debris. Add reconstituted rL/L reagent with the sample and detection immediately, expressed as relative light units (RLU). Serially diluted ATP standard to calculating ATP concentrations generates a regression curve. All reagents in this kit must be returned to room temperature before use.

[10] = system: Human non-small cell lung cancer cell A549; test: HMGB1 secretion by western blot; assay type: cell-based; conditions: 4×IC50 (6.452 μM)
Protocol: FIG. 3 depict that the release level of HMGB1 was analyzed by Western Blot. Human non-small cell lung cancer cell A549 administrated with 6.452 μM (4×IC50) of K1R12-AGP-RW for different time period (60 min, 120 min, 240 min), the HMGB1 release form lysate (L) to the supernatant (S). A549 treated with medium without serum as control group.
In one embodiment, cancer cells were seeded with 5×10^5 cells/well in 6-cm polystyrene in complete medium and allowed to adhere 24 hr. Cells were treated with K1R12-AGP-IR, K1R12-AGP-RW, K1R12-AGP-RI at 4×IC50 dilution in medium without serum and incubated at 37° C. for different time points (60 min,120 min,240 min). RPMI medium without peptide treated for 24 hr which was used as a negative control. Supernatants (S) were collected and centrifuged at 1,500 rcf for 5 minutes. Cell lysates (L) use 500 μL Trypsin-EDTA harvested after centrifuged at 750 g for 5 minutes and washing lysate twice with PBS. And addition 150 μL RIPA and protease inhibitor blended buffer, then centrifugation same condition with supernatant(S). Sonication with 5 cycle number, time on or off 30 sec, and centrifugation for 10 minutes, 1400 g at 4° C., thereafter lysed using a 6× Sample buffer, 0.1M DTT (Sigma), and water. Protein concentrations of cell extracts were determined by Bradford reagent. Both supernatants and lysate were boiled in 80° C. 10 minutes and resolved by 12% sodium dodecyl sulfate-polyacrylamide gel electrophoresis (SDS-PAGE), and then electro transferred to a polyvinylidene difluoride (PVDF) membrane (Millipore). The membrane was blocked in 5% skimmed milk and incubated with the HMGB1 antibody (rabbit, polyclonal, Abcam ab 18256). The membrane was then rinsed several times with TB ST, incubated with horseradish peroxidase (HRP)-conjugated secondary antibody (Abcam ab6721). The signals were visualized by enhanced chemiluminescence (ECL) and recorded by a detected system (Image Quant LAS 4000mini).

[11] = system: Human non-small cell lung cancer cell A549; test: ROS release (DCFDA assay); assay type: cell-based; conditions: 4×IC50 (6.452 μM); 120 minutes
Protocol: FIG. 6 depict that release of ROS from cancer cells were administrated with the peptide. Human non-small cell lung cancer cell A549 administrated with 6.452 μM (4×IC50) of K1R12-AGP-RW for 120 min. The cells of control group were treated with RPMI-1640 without phenol red. Data are presented as means ±SEM, **p<0.05, versus the control group. Data of FIG. 6 were analyzed by Student's t-test.
The 2′,7′-dichlorofluorescin diacetate (DCFDA) intracellular ROS detection assay kit from Abcam (UK, ab113851) was used for measuring ROS release. Cells were seeded in a 96 well black clear bottom plate with 4×10^4 per well, culture 24 hours. Remove medium and washed once in pre-warm 1× PBS with 100 μl per well. Furthermore, cells were treated with 25 μM DCFDA in 1× buffer solution incubated for 120 minutes. Washed again with a buffer solution of 100 μL/well, before adding the 4×IC50 K1R12-AGP-RW dissolved in RPMI without phenol red, and incubated 60,120 and 240 minutes. Cells incubated with RPMI without phenol red were used as a negative control, and the positive control was tertbutyl hydroperoxide (TBHP). Using a fluorescence plate reader (VICTOR3, PerkinElmer, USA) determined at an excitation wavelength of 485 nm and an emission wavelength of 535 nm.

Substance	IC50 at 24 h [1] [µM]	anticancer activity spectrum ([2]; human lung cancer and oral squamous cell carcinoma cell lines, MTT)	efficiency to the human lung cancer cell line [2]	activity against oral squamous cell carcinoma cell line C9 (in words) [3]	pIC50 [3]	pIC50 [4]	pIC50 [5]	pIC50 [6]	pIC50 [7]	cytochrome c release ([8]; 120 minutes)	cytochrome c release versus untreated cell ([8]; 240 minutes)	killing kinetics, 4×IC50 versus 2×IC50 (A549 cell)	ATP secretion ([9]; after 30 minutes, with time increased)	ATP secretion ([9]; within 30 minutes)	HMGB1 in cell lysate (L) ([10]; 60, 120, 240 minutes, time-dependent)	HMGB1 in supernatant (S) ([10]; after 120 minutes)	HMGB1 in supernatant (S) ([10]; after 240 minutes)	inhibition of A549 compared with the other cancer cells ([6]; MTT)	ROS release versus untreated cell [11]
Ac-KRIVQRIKDFLRAGPIKDFLR-NH2 [SEQ ID NO: 5, Ac-KRIVQRIKDFLR-AGP-IKDFLR-NH2]	13.5	broad-spectrum anticancer activity	good efficiency	weak	4.60	4.93	4.98	5.20	4.94	–	–	–	–	–	–	–	–	–	–
Ac-KRIVQRIKDFLRAGPRRLVRI-NH2 [SEQ ID NO: 7, Ac-KRIVQRIKDFLR-AGP-RRLVRI-NH2]	10.4	–	good efficiency	weak	4.52	4.86	4.77	5.41	4.95	–	–	–	–	–	–	–	–	–	–
Ac-KRIVQRIKDFLRAGPRRWWRW-NH2 [SEQ ID NO: 6, Ac-KRIVQRIKDFLR-AGP-RRWWRW-NH2]	11.1	–	–	–	5.36	4.96	5.27	5.79	5.34	release at a certain level and keep stabilize	significant increase	more rapid kill cancer cells	reduced	higher level	reduce	slight increase	complete release into the supernatant(S)	more effective	significant increase
